Experimental data taken from patent publication US8476064B2, “Inhibition assay method and device for detection of antibiotics” (Charm Sciences, Inc., priority 2006, dated 2013).

Experiments:
B.st. spores [1] = assay: Single service kidney swab microbial growth inhibition test, culture of Example 1, with or without beta-lactam receptor; format: cell-based, Bacillus (Geobacillus) Stearothermophilus; details: for test result With receptor: with 1 U receptor
Procedure: A Bromocresol purple (BCP)/Tris Solution was prepared by combining 25 mL of a Trizma Base solution (TBS), the solution including 2.5 grams Trizma Base in 100 mL of reverse osmosis/deionized water (RO/DI Water), with 100 milligrams of BCP and mixing well. The media was prepared by dissolving 5 grams glucose and 1 gram Mueller Hinton Broth (Mueller Hinton broth includes, in purified filtered water, 2 grams per liter (g/L) beef extract, 17.5 g/L casein hydrolysate acid and 1.5 g/L starch, pH 7.3 at 25 degrees C) into 100 mL RO/DI Water. Then a 0.01 mg/mL solution of trimethoprim in RO/DI Water was prepared and 1.2 mL was added to the media. Next 20 mL of BCP/Tris (sterile filtered through 0.45 micron filter) was added to the media.
Agar was prepared by combining 0.3 grams Difco Bacto-Agar (Item #0140-01), 0.225 NaCl and 17.485 RO/DI Water. The mixture was heated to 95° C. and then removed from the heat and allowed to cool to 75° C. Next 6 mL of media (prepared as described above with BCP/Tris) was added to the agar and mixed for 5 minutes. The mixture was cooled to 57° C. and 1 mL spore solution (concentration of 1 billion cfu/mL) was added and mixed together for 5 minutes. 0.200 mL was dispensed into the bottom of a vial 4.
The dispensed vial 4 was prepared as described in example 1. An extractant was prepared by adding 4.8 grams of 47.2% Trizma Base and 52.5% Potassium Phosphate Monobasic to 1000 mL RO/DI Water (pH should be 7.5+/−0.10). The extractant was sealed within the niblet 5 and the niblet was added to the vial 4. The vial 4 was heat sealed with foil.
The single service kidney swab procedure was run by first making a 3 inch incision into kidney. The swab 1 was then withdrawn from the test unit, the test unit in the form of a POCKETSWAB, by gently pulling and twisting the handle 2 out of the test unit body 7. The swab 1 was then inserted into the incision of the kidney and allowed to sit for 15 minutes to allow full absorption of liquid into the swab 1. The swab 1 was reinserted by gently pushing down and twisting to engage the threads 6 and screwing the handle down slowly about halfway. The swab tip 3 punctured the seals 12, 13 & 14 immersing the swab tip 3 into the extractant within the niblet 5 where it sat for 2 minutes. The swab 1 was then screwed down all the way. After shaking and tapping the vial 4 to get residual liquid into the bottom of the vial 4 and in contact with the culture 15, we placed the vial 4 into a heat block set at 67° C. and incubated for 2.5 hours (if urine is tested instead of kidney, incubate for 4 hours).
Culture is prepared as in Example 1. Prior to dispensing 200 microliters into the vial 4, antibiotic binder is prepared, in this example an antibiotic binder from the cell wall of B.st., also known as receptor. Varying amounts of inhibitory receptor units are mixed into the culture. Receptor is defined as protein removed from cellular membrane of B.st. A receptor unit (1 U) is the amount of receptor that will, in the test, reverse the culture growth inhibition of 12.5 ppb of penicillin G.
Results in Table 1 are from tests using the culture described in Example 1 and with the addition of receptor added into rinse buffer (rinse buffer composition is 4.8 grams of 47.2% Trizma Base and 52.5% Potassium Phosphate Monobasic to 1000 mL RO/DI Water) at 0, 0.3 units (U), 1.0 U, 2.0 U, 5.0 Upper test. Sample contained the following amounts of penicillin G: 0, 5 parts per billion (ppb), 10 ppb, 12.5 ppb, 25 ppb and 50 ppb. As shown, 1.0 U was able to reverse the result of a 12.5 ppb penicillin G sample. Results are either positive (+) or negative (−).
Results are either positive (+), negative (−) or borderline between positive and negative (+/−). Abbreviations are penicillin G (PenG); sulfamethazine (SMZ); sulfadimethoxine (SDM); tylosin (TY); gentamicin (G); oxytetracycline (OT). […]

B.st. spores [2] = assay: Antibiotic detection test in spiked milk, borate/succinate culture of Example 6 (Table 4); format: cell-based, Bacillus (Geobacillus) Stearothermophilus; set-up: key to Color 1 / Color 2: Color result 1 and 2 is a negative result; Color result 1 and 2 is a negative result; 3 is a borderline result; 4 and 5 is a positive result; 4 and 5 is a positive result; details: for % Pos (Color 2) / Color 2: after 16 hours at room temperature; for % Pos (Color 1) / Color 1: immediately after test completion
Procedure: BCP/Borate/Succinate Solution was prepared by adding 3.8 grams of Borate and 6 grams Succinate to 100 mL of reverse osmosis/deionized water (RO/DI Water) in 125 mL flask. 50 milligrams of BCP was added to a 50 mL conical tube and 5 mL of Borate/Succinate solution was added to the 50 milligrams BCP and mixed.
To prepare media 5 grams glucose and 1 gram Mueller Hinton Broth was dissolved in 100 mL RO/DI Water. 1.2 mL of a 0.01 mg/mL solution of trimethoprim in RO/DI Water was prepared and added to the media. A 20 mL of BCP/Borate/Succinate was added to the media and the media was sterile filtered through a 0.45 micron filter and then cooled to 4 degrees C.
Agar was prepared by combining 0.3 grams Difco Bacto-Agar (Item #0140-01), 0.225 NaCl and 17.485 RO/DI Water. The mixture was heated to 95° C. and then removed from the heat and allowed to cool to 75° C. Next 6 mL of media (prepared as described above with BCP/Tris) was added to the agar and mixed for 5 minutes. The mixture was cooled to 57° C. and 1 mL spore solution (concentration of 1 billion cfu/mL) was added and mixed together for 5 minutes. 0.200 mL was dispensed into the bottom of each of the vials.
In test operation 200 microliters of various milk sample, spiked with known concentrations of antibiotics, were pipetted into test vials and incubated for the prescribed time (in this test 2 hours 10 minutes) and prescribed temperature (64 degrees C.+/−2 degrees C.). Incubation was in the Charm I Inctronic incubator. Results were recorded immediately after test completion (Color 1) and after being left at room temperature for 16 hours (Color 2). Results listed are in parts per billion (ppb). 4 samples were run at each concentrations except for raw negative milk (16 samples) and 3 ppb pen G (2 samples) and amoxicillin (2 samples). Abbreviations are penicillin G (PenG); sulfamethazine (SMZ); sulfadimethoxine (SDM); tylosin (TY); gentamicin (G); oxytetracycline (OT); pirlimycin (Pirl); amoxicillin (Amox); ampicillin (Amp); cloxacillin (Clox); ceftiofur sodium (Ceft); cephaprin (Ceph); tilmicosin (Til); sulfadoxine (SDN); neomycin (Neo). Color result 1 and 2 is a negative result, 3 is a borderline result and 4 and 5 is a positive result.

[3] = drug concentration 250 (unit not given)
[4] = drug concentration 500 (unit not given)
[5] = drug concentration 750 (unit not given)

CN(C)[C@@H]1C(O)=C(C(N)=O)C(=O)[C@@]2(O)C(O)=C3C(=O)c4c(O)cccc4[C@@](C)(O)[C@H]3[C@H](O)[C@@H]12 [OT, oxytetracycline]
test result w/out receptor (B.st. spores [1]; [3]): + | test result With receptor (B.st. spores [1]; [3]): + | test result w/out receptor (B.st. spores [1]; [4]): + | test result With receptor (B.st. spores [1]; [4]): + | test result w/out receptor (B.st. spores [1]; [5]): + | test result With receptor (B.st. spores [1]; [5]): + | % Pos (Color 2) (B.st. spores [2]; milk spiked at 200 ppb): 0% | Color 2 (B.st. spores [2]; milk spiked at 200 ppb): 2 | % Pos (Color 1) (B.st. spores [2]; milk spiked at 200 ppb): 0% | Color 1 (B.st. spores [2]; milk spiked at 200 ppb): 2 | % Pos (Color 2) (B.st. spores [2]; milk spiked at 300 ppb): 100% | Color 2 (B.st. spores [2]; milk spiked at 300 ppb): 4 | % Pos (Color 1) (B.st. spores [2]; milk spiked at 300 ppb): 100% | Color 1 (B.st. spores [2]; milk spiked at 300 ppb): 5
